Results as given in patent US11267822B2, “BET bromodomain protein degraders with cleavable linkers” (THE REGENTS OF THE UNIVERSITY OF MICHIGAN, priority 2017, dated 2022).

Assays:
[1] = Pharmacokinetics in RS4;11 tumor-bearing mice (plasma and tumor concentrations); type: in vivo; details: for Cpd. No. 15 Concentration in plasma: IV 10 mg/kg Cpd. No. 15, RS4;11 tumor-bearing mice
Description: The pharmacokinetics of Cpd. No. 15 in RS4;11 tumor-bearing mice show it is converted to Cpd. No. 52 in plasma and tumor tissue. BLOQ=below limit of detection; nd=not determined

[2] = test system: BET protein; assay: Pharmacodynamic effect in RS4;11 tumor tissue in mice (BET protein degradation); type: in vivo; details: RS4;11 tumor-bearing mice, intravenous dosing at 10 mg/kg
Description: FIG. 1 is an illustration showing the pharmacodynamic effect of Cpd. No. 15 in RS4;11 tumor tissue in mice.
FIG. 2 is an illustration showing the pharmacodynamic effect of Cpd. No. 16 in RS4;11 tumor tissue in mice.
The pharmacodynamic effect of Cpd. No. 15 and Cpd.

[3] = test system: MOLM13; assay: Cell growth inhibition, CellTiter-Glo Luminescent Cell Viability Assay, MOLM13; type: cell-based; details: MOLM13 cells, 4 days
Method: (§1) Cell growth inhibitory activity of representative Compounds of the Disclosure was determined using the CellTiter-Glo® Luminescent Cell Viability Assay. Cells were seeded in 384-well white opaque cell culture plates at a density of 2,000 cells/well with serially diluted compounds and incubated at 37° C. in an atmosphere of 95% air and 5% CO2 for 4 days. Cell viability was determined using the CellTiter-Glo® Luminescent Cell Viability Assay Kit (Promega, Madison, Wis.) according to the manufacture's instruction. Briefly, a volume of CellTiter-Glo® Reagent equal to the volume of cell culture medium was added to each well, and then the plates were incubated at room temperature for 10-20 minutes. The luminescent signal was measured using a Tecan Infinite M1000 multimode microplate reader (Tecan, Morrisville, N.C.). The half maximal inhibitory concentration (IC50) in Table 3 was calculated using the GraphPad Prism 5 software (GraphPad Software, La Jolla, Calif.).

[4] = test system: MDA-MB-231; assay: Cell growth inhibition, CellTiter-Glo Luminescent Cell Viability Assay, MDA-MB-231; type: cell-based; details: MDA-MB-231 cells, 4 days
Method: as §1

With `Cc1nnc2n1-c1sc(C#Cc3cnn(CCCC(=O)OCCCOc4cccc5c4CN(C4CCC(=O)NC4=O)C5=O)c3)c(Cc3ccccc3)c1COC2` (stereo not shown) [Cpd. No. 15, 3-((2-(2,6-dioxopiperidin-3-yl)-1-oxoisoindolin-4-yl)oxy)propyl 4-(4-((3-benzyl-9-methyl-4H,6H-thieno[2,3-e][1,2,4]triazolo[3,4-c][1,4]oxazepin-2-yl)ethynyl)-1H-pyrazol-1-yl)butanoate] the “Cpd. No. 15 Concentration in tumor” value ([1]; IV 10 mg/kg Cpd. No. 15, 1 h, Mouse 1 L tumor) was “BLOQ”, the “Cpd. No. 15 Concentration in tumor” value ([1]; IV 10 mg/kg Cpd. No. 15, 1 h, Mouse 1 R tumor) was “BLOQ” and the “Cpd. No. 15 Concentration in tumor” value ([1]; IV 10 mg/kg Cpd. No. 15, 1 h, Mouse 2 L tumor) was “BLOQ”. The “Cpd. No. 15 Concentration in tumor” value ([1]; IV 10 mg/kg Cpd. No. 15, 1 h, Mouse 2 R tumor) was “BLOQ”, the “Cpd. No. 15 Concentration in tumor” value ([1]; IV 10 mg/kg Cpd. No. 15, 3 h, Mouse 1 L tumor) was “BLOQ” and the “Cpd. No. 15 Concentration in tumor” value ([1]; IV 10 mg/kg Cpd. No. 15, 3 h, Mouse 1 R tumor) was “BLOQ”. For the same compound, the “Cpd. No. 15 Concentration in tumor” value ([1]; IV 10 mg/kg Cpd. No. 15, 3 h, Mouse 2 L tumor) was “BLOQ”, the “Cpd. No. 15 Concentration in tumor” value ([1]; IV 10 mg/kg Cpd. No. 15, 3 h, Mouse 2 R tumor) was “BLOQ” and the “Cpd. No. 15 Concentration in plasma” value ([1]; 1 h, mouse 1) was “BLOQ”. For the same compound, the “Cpd. No. 15 Concentration in plasma” value ([1]; 1 h, mouse 2) was “BLOQ”, the “Cpd. No. 15 Concentration in plasma” value ([1]; 3 h, mouse 1) was “BLOQ” and the “Cpd. No. 15 Concentration in plasma” value ([1]; 3 h, mouse 2) was “BLOQ”. The “Conversion (metabolism) in plasma and tumor tissue” value ([1]; RS4;11 tumor-bearing mice, IV 10 mg/kg) was “converted to Cpd. No. 52 in plasma and tumor tissue” and the “Pharmacodynamic effect: BET protein degradation in tumor tissue” value [2] was “induce BET protein degradation in tumor tissue”.

For `Cc1nnc2n1-c1sc(C#Cc3cnn(CCCC(=O)OCCC#Cc4cccc5c4CN(C4CCC(=O)NC4=O)C5=O)c3)c(Cc3ccccc3)c1COC2` (stereo not shown) [Cpd. No. 16, 4-(2-(2,6-dioxopiperidin-3-yl)-1-oxoisoindolin-4-yl)but-3-yn-1-yl 4-(4-((3-benzyl-9-methyl-4H,6H-thieno[2,3-e][1,2,4]triazolo[3,4-c][1,4]oxazepin-2-yl)ethynyl)-1H-pyrazol-1-yl)butanoate], the “Pharmacodynamic effect: BET protein degradation in tumor tissue” value [2] was “induce BET protein degradation in tumor tissue”, the IC50 ([3]; Homo sapiens, MOLM-13, 96 h) was 0.4 nM and the IC50 [3] was 0.2 nM. It also gave an IC50 ([4]; Homo sapiens, MDA-MB-231, 96 h) of 1.5 nM and an IC50 [4] of 0.9 nM.

`Cc1nnc2n1-c1sc(C#Cc3cnn(CC(=O)OCCCCc4cccc5c4CN(C4CCC(=O)NC4=O)C5=O)c3)c(Cc3ccccc3)c1COC2` (stereo not shown) [compound 34, 4-(2-(2,6-dioxopiperidin-3-yl)-1-oxoisoindolin-4-yl)butyl 2-(4-((3-benzyl-9-methyl-4H,6H-thieno[2,3-e][1,2,4]triazolo[3,4-c][1,4]oxazepin-2-yl)ethynyl)-1H-pyrazol-1-yl)acetate] gave an IC50 ([3]; Homo sapiens, MOLM-13, 96 h) of 0.7 nM and an IC50 ([4]; Homo sapiens, MDA-MB-231, 96 h) of 8.4 nM.

For `Cc1nnc2n1-c1sc(C#Cc3cnn(CC(=O)OCCCc4cccc5c4CN(C4CCC(=O)NC4=O)C5=O)c3)c(Cc3ccccc3)c1COC2` (stereo not shown) [compound 38, 3-(2-(2,6-dioxopiperidin-3-yl)-1-oxoisoindolin-4-yl)propyl 2-(4-((3-benzyl-9-methyl-4H,6H-thieno[2,3-e][1,2,4]triazolo[3,4-c][1,4]oxazepin-2-yl)ethynyl)-1H-pyrazol-1-yl)acetate], the IC50 ([3]; Homo sapiens, MOLM-13, 96 h) was 22 nM and the IC50 ([4]; Homo sapiens, MDA-MB-231, 96 h) was greater than 100 nM.

Work on `Cc1nnc2n1-c1sc(C#Cc3cnn(CCCC(=O)OCC#Cc4cccc5c4CN(C4CCC(=O)NC4=O)C5=O)c3)c(Cc3ccccc3)c1COC2` (stereo not shown) [compound 41, 3-(2-(2,6-dioxopiperidin-3-yl)-1-oxoisoindolin-4-yl)prop-2-yn-1-yl 4-(4-((3-benzyl-9-methyl-4H,6H-thieno[2,3-e][1,2,4]triazolo[3,4-c][1,4]oxazepin-2-yl)ethynyl)-1H-pyrazol-1-yl)butanoate] yielded an IC50 ([3]; Homo sapiens, MOLM-13, 96 h) of 3.8 nM and an IC50 ([4]; Homo sapiens, MDA-MB-231, 96 h) of 1.2 nM.

For `Cc1nnc2n1-c1sc(C#Cc3ccc(CCCC(=O)OCCN4CCC(Nc5cccc6c5CN(C5CCC(=O)NC5=O)C6=O)CC4)nc3)c(Cc3ccccc3)c1COC2` (stereo not shown) [compound 42, 2-(4-((2-(2,6-dioxopiperidin-3-yl)-1-oxoisoindolin-4-yl)amino)piperidin-1-yl)ethyl 4-(5-((3-benzyl-9-methyl-4H,6H-thieno[2,3-e][1,2,4]triazolo[3,4-c][1,4]oxazepin-2-yl)ethynyl)pyridin-2-yl)butanoate], the IC50 ([3]; Homo sapiens, MOLM-13, 96 h) was 5.5 nM and the IC50 ([4]; Homo sapiens, MDA-MB-231, 96 h) was 4.9 nM.

Work on `Cc1nnc2n1-c1sc(C#Cc3ccc(CCCC(=O)OCCN4CCN(c5cccc6c5C(=O)N(C5CCC(=O)NC5=O)C6=O)CC4)nc3)c(Cc3ccccc3)c1COC2` (stereo not shown) [compound 43, 2-(4-(2-(2,6-dioxopiperidin-3-yl)-1,3-dioxoisoindolin-4-yl)piperazin-1-yl)ethyl 4-(5-((3-benzyl-9-methyl-4H,6H-thieno[2,3-e][1,2,4]triazolo[3,4-c][1,4]oxazepin-2-yl)ethynyl)pyridin-2-yl)butanoate] yielded an IC50 ([3]; Homo sapiens, MOLM-13, 96 h) greater than 100 nM and an IC50 ([4]; Homo sapiens, MDA-MB-231, 96 h) greater than 100 nM.

Compound `Cc1nnc2n1-c1sc(C#Cc3cnn(CCCC(=O)OCCN4CCN(c5cccc6c5C(=O)N(C5CCC(=O)NC5=O)C6=O)CC4)c3)c(Cc3ccccc3)c1COC2` (stereo not shown) [compound 44, 2-(4-(2-(2,6-dioxopiperidin-3-yl)-1,3-dioxoisoindolin-4-yl)piperazin-1-yl)ethyl 4-(4-((3-benzyl-9-methyl-4H,6H-thieno[2,3-e][1,2,4]triazolo[3,4-c][1,4]oxazepin-2-yl)ethynyl)-1H-pyrazol-1-yl)butanoate] has an IC50 ([3]; Homo sapiens, MOLM-13, 96 h) of 4.3 nM and an IC50 ([4]; Homo sapiens, MDA-MB-231, 96 h) greater than 100 nM.
